# Measurements reported in ChEMBL document CHEMBL1201862, “PubChem BioAssay data set” (2004).
#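 Dose response: 5 concentrations. Exposure: 48 h. Format: 96-well plates. Endpoint: linear interpolation; highest concentration if not reached. GI50 = concentration required for 50% inhibition of growth.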 Active and inactive are the calls of the source. No stated cut-off is given here; in the data, active = GI50 up to about 1.1 µM and inactive = higher.
# Legend:
# Experiment in all cases: NCI tumour cell line growth inhibition, 48 h
# EKVX = system: EKVX
# Malme-3M = system: Malme-3M
# SK-MEL-5 = system: SK-MEL-5
# SF-539 = system: SF-539
# NCI-H226 = system: NCI-H226
# SK-MEL-28 = system: SK-MEL-28
# HOP-62 = system: HOP-62
# MDA-MB-231 = system: MDA-MB-231
# NCI-H522 = system: NCI-H522
# ACHN = system: ACHN
# SR = system: SR
# 786-0 = system: 786-0
# HCC 2998 = system: HCC 2998
# DU-145 = system: DU-145
# RPMI-8226 = system: RPMI-8226
# NCI/ADR-RES = system: NCI/ADR-RES
# SF-295 = system: SF-295
# SNB-75 = system: SNB-75
# K562 = system: K562
# M14 = system: M14
# MCF7 = system: MCF7
# SK-MEL-2 = system: SK-MEL-2
# OVCAR-3 = system: OVCAR-3
# NCI-H460 = system: NCI-H460
# NCI-H23 = system: NCI-H23
# A549 = system: A549
# HL-60 = system: HL-60
# SW-620 = system: SW-620
# OVCAR-4 = system: OVCAR-4
# SNB-19 = system: SNB-19
# KM12 = system: KM12
# U-251 = system: U-251
# LOX IMVI = system: LOX IMVI
# COLO 205 = system: COLO 205
# UACC-62 = system: UACC-62
# HOP-92 = system: HOP-92
# UO-31 = system: UO-31
# SK-OV-3 = system: SK-OV-3
# TK-10 = system: TK-10
# HT-29 = system: HT-29
# HCT-15 = system: HCT-15
# HCT-116 = system: HCT-116
# PC-3 = system: PC-3
# CAKI-1 = system: CAKI-1
# RXF 393 = system: RXF 393
# BT-549 = system: BT-549
# MOLT-4 = system: MOLT-4
# OVCAR-5 = system: OVCAR-5
# SF-268 = system: SF-268
# T47D = system: T47D
# MDA-MB-435 = system: MDA-MB-435
# A498 = system: A498
# CCRF-CEM = system: CCRF-CEM
# OVCAR-8 = system: OVCAR-8
# UACC-257 = system: UACC-257
# MDA-N = system: MDA-N
# IGROV-1 = system: IGROV-1
# SN12C = system: SN12C
# Hs-578T = system: Hs-578T
smiles,measurement,setting,value
COc1ccc(C23OCC(Cc4cc(OC)c(OC)cc42)C3COC(C)=O)cc1OC (stereo unspecified),GI50,EKVX,> 100 µM (inactive)
same,GI50,Malme-3M,> 100 µM (inactive)
same,GI50,SK-MEL-5,20.7 µM (inactive)
same,GI50,SF-539,> 100 µM (inactive)
same,GI50,NCI-H226,5.66 µM (inactive)
same,GI50,SK-MEL-28,> 100 µM (inactive)
same,GI50,HOP-62,> 100 µM (inactive)
same,GI50,MDA-MB-231,> 100 µM (inactive)
same,GI50,NCI-H522,> 100 µM (inactive)
same,GI50,ACHN,> 100 µM (inactive)
same,GI50,SR,27.4 µM (inactive)
same,GI50,786-0,> 100 µM (inactive)
same,GI50,HCC 2998,> 100 µM (inactive)
same,GI50,DU-145,> 100 µM (inactive)
same,GI50,RPMI-8226,> 100 µM (inactive)
same,GI50,NCI/ADR-RES,25.5 µM (inactive)
same,GI50,SF-295,> 100 µM (inactive)
same,GI50,SNB-75,> 100 µM (inactive)
same,GI50,K562,> 100 µM (inactive)
same,GI50,M14,> 100 µM (inactive)
same,GI50,MCF7,> 100 µM (inactive)
same,GI50,SK-MEL-2,> 100 µM (inactive)
same,GI50,OVCAR-3,> 100 µM (inactive)
same,GI50,NCI-H460,> 100 µM (inactive)
same,GI50,NCI-H23,56.1 µM (inactive)
same,GI50,A549,> 100 µM (inactive)
same,GI50,HL-60,> 100 µM (inactive)
same,GI50,SW-620,> 100 µM (inactive)
same,GI50,OVCAR-4,> 100 µM (inactive)
same,GI50,SNB-19,> 100 µM (inactive)
same,GI50,KM12,> 100 µM (inactive)
same,GI50,U-251,> 100 µM (inactive)
same,GI50,LOX IMVI,> 100 µM (inactive)
same,GI50,COLO 205,> 100 µM (inactive)
same,GI50,UACC-62,> 100 µM (inactive)
same,GI50,HOP-92,> 100 µM (inactive)
same,GI50,UO-31,> 100 µM (inactive)
same,GI50,SK-OV-3,> 100 µM (inactive)
same,GI50,TK-10,> 100 µM (inactive)
same,GI50,HT-29,> 100 µM (inactive)
same,GI50,HCT-15,> 100 µM
same,GI50,HCT-116,> 100 µM (inactive)
same,GI50,PC-3,> 100 µM (inactive)
same,GI50,CAKI-1,> 100 µM (inactive)
same,GI50,RXF 393,> 100 µM (inactive)
same,GI50,BT-549,> 100 µM (inactive)
same,GI50,MOLT-4,> 100 µM (inactive)
same,GI50,OVCAR-5,> 100 µM (inactive)
same,GI50,SF-268,> 100 µM (inactive)
same,GI50,T47D,> 100 µM (inactive)
same,GI50,MDA-MB-435,> 100 µM (inactive)
same,GI50,A498,> 100 µM (inactive)
CC[C@@]1(N(C)C)C(=O)OCc2c1cc1n(c2=O)Cc2cc3ccccc3nc2-1,GI50,EKVX,45.9 µM (inactive)
same,GI50,Malme-3M,20.2 µM (inactive)
same,GI50,SK-MEL-5,69.3 µM (inactive)
same,GI50,NCI-H226,22.4 µM (inactive)
same,GI50,SK-MEL-28,> 100 µM (inactive)
same,GI50,HOP-62,16.9 µM (inactive)
same,GI50,MDA-MB-231,96.6 µM (inactive)
same,GI50,NCI-H522,12.7 µM (inactive)
same,GI50,ACHN,20.3 µM (inactive)
same,GI50,786-0,25.8 µM (inactive)
same,GI50,HCC 2998,97.7 µM (inactive)
same,GI50,DU-145,21.1 µM (inactive)
same,GI50,RPMI-8226,31.3 µM (inactive)
same,GI50,NCI/ADR-RES,21.3 µM (inactive)
same,GI50,SF-295,16.1 µM (inactive)
same,GI50,SNB-75,12.8 µM (inactive)
same,GI50,K562,> 100 µM (inactive)
same,GI50,CCRF-CEM,18.5 µM (inactive)
same,GI50,M14,> 100 µM (inactive)
same,GI50,MCF7,32.1 µM (inactive)
same,GI50,SK-MEL-2,26.4 µM (inactive)
same,GI50,OVCAR-3,27.8 µM (inactive)
same,GI50,NCI-H460,12.5 µM (inactive)
same,GI50,NCI-H23,16.6 µM (inactive)
same,GI50,A549,61 µM (inactive)
same,GI50,SW-620,32.1 µM (inactive)
same,GI50,OVCAR-4,47.1 µM (inactive)
same,GI50,SNB-19,29.4 µM (inactive)
same,GI50,KM12,> 100 µM (inactive)
same,GI50,U-251,29.2 µM (inactive)
same,GI50,LOX IMVI,17.1 µM (inactive)
same,GI50,OVCAR-8,16.9 µM (inactive)
same,GI50,COLO 205,> 100 µM (inactive)
same,GI50,UACC-62,22.1 µM (inactive)
same,GI50,HOP-92,19.1 µM (inactive)
same,GI50,UO-31,25.4 µM (inactive)
same,GI50,SK-OV-3,18.7 µM (inactive)
same,GI50,TK-10,48.2 µM (inactive)
same,GI50,HCT-15,45.3 µM
same,GI50,HCT-116,33.1 µM (inactive)
same,GI50,PC-3,58.3 µM (inactive)
same,GI50,CAKI-1,> 10 µM (inactive)
same,GI50,RXF 393,13.7 µM (inactive)
same,GI50,BT-549,20.3 µM (inactive)
same,GI50,OVCAR-5,> 100 µM (inactive)
same,GI50,SF-268,17.3 µM (inactive)
same,GI50,UACC-257,> 100 µM (inactive)
same,GI50,T47D,18.9 µM (inactive)
same,GI50,MDA-MB-435,> 100 µM (inactive)
same,GI50,A498,42.7 µM (inactive)
C=C(CC[C@@H](C)[C@H]1CC[C@@]2(C)C3=C(CC[C@]12C)[C@@]1(C)CC[C@H](O)[C@@H](C)C1CC3)C(C)C (stereo partly specified),GI50,EKVX,1.23 µM (inactive)
same,GI50,Malme-3M,1.29 µM (inactive)
same,GI50,SK-MEL-5,1.26 µM (inactive)
same,GI50,MDA-N,1.17 µM (inactive)
same,GI50,SF-539,1.47 µM (inactive)
same,GI50,NCI-H226,1.81 µM (inactive)
same,GI50,SK-MEL-28,1.28 µM (inactive)
same,GI50,HOP-62,0.879 µM (active)
same,GI50,MDA-MB-231,1.5 µM (inactive)
same,GI50,IGROV-1,2.35 µM (inactive)
same,GI50,ACHN,1.38 µM (inactive)
same,GI50,SR,1.01 µM (active)
same,GI50,786-0,0.984 µM (active)
same,GI50,HCC 2998,1.53 µM (inactive)
same,GI50,NCI/ADR-RES,1.4 µM (inactive)
same,GI50,SF-295,1.08 µM (active)
same,GI50,SNB-75,1.25 µM (inactive)
same,GI50,K562,0.273 µM (active)
same,GI50,CCRF-CEM,0.414 µM (active)
same,GI50,M14,1.17 µM (inactive)
same,GI50,MCF7,1.47 µM (inactive)
same,GI50,SK-MEL-2,1.56 µM (inactive)
same,GI50,OVCAR-3,1.77 µM (inactive)
same,GI50,NCI-H460,0.679 µM (active)
same,GI50,NCI-H23,1.28 µM (inactive)
same,GI50,A549,1.2 µM (inactive)
same,GI50,HL-60,0.361 µM (active)
same,GI50,SW-620,1.71 µM (inactive)
same,GI50,OVCAR-4,1.6 µM (inactive)
same,GI50,SNB-19,2.17 µM (inactive)
same,GI50,KM12,1.26 µM (inactive)
same,GI50,U-251,1.39 µM (inactive)
same,GI50,LOX IMVI,0.906 µM (active)
same,GI50,OVCAR-8,1.61 µM (inactive)
same,GI50,COLO 205,1.17 µM (inactive)
same,GI50,UACC-62,1.43 µM (inactive)
same,GI50,HOP-92,1.18 µM (inactive)
same,GI50,UO-31,1.23 µM (inactive)
same,GI50,SK-OV-3,1.6 µM (inactive)
same,GI50,TK-10,1.35 µM (inactive)
same,GI50,HT-29,0.48 µM (active)
same,GI50,HCT-15,1.2 µM
same,GI50,HCT-116,1.31 µM (inactive)
same,GI50,PC-3,1.07 µM (active)
same,GI50,CAKI-1,1.15 µM (inactive)
same,GI50,SN12C,1.44 µM (inactive)
same,GI50,RXF 393,1.37 µM (inactive)
same,GI50,BT-549,1.48 µM (inactive)
same,GI50,MOLT-4,0.953 µM (active)
same,GI50,Hs-578T,1.6 µM (inactive)
same,GI50,OVCAR-5,1.42 µM (inactive)
same,GI50,UACC-257,1.49 µM (inactive)
same,GI50,MDA-MB-435,1.32 µM (inactive)
same,GI50,A498,1.41 µM (inactive)
